System: SUM149PT spheroids with HUVEC/MSC, viability
Assay: Anticancer human tumor SUM149PT cell line growth inhibition [GQUAD];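 note: spheroids exposed to drugs for seven days before readout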;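 for viability, T/C: percent viability relative to DMSO vehicle control taken as 100%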
Conditions: for IC50: curve of first compound; for viability, T/C: stronger effect = lower value
Method in brief: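 Viability of tumor cells grown as complex spheroids with endothelial and stromal cells, exposed to drug combinations. Top concentration at or near clinical Cmax (else 10 microM), diluted in half-log increments.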

[1] = second compound 0.0316 µM, first compound 0.0316 µM
[2] = second compound 0.0316 µM, first compound 0.1 µM
[3] = second compound 0.0316 µM, first compound 0.316 µM
[4] = second compound 0.0316 µM, first compound 1 µM
[5] = second compound 0.0316 µM, first compound 3.16 µM
[6] = second compound 0.0316 µM, first compound 10 µM
[7] = second compound 0.1 µM, first compound 0.0316 µM
[8] = second compound 0.1 µM, first compound 0.1 µM
[9] = second compound 0.1 µM, first compound 0.316 µM
[10] = second compound 0.1 µM, first compound 1 µM
[11] = second compound 0.1 µM, first compound 3.16 µM
[12] = second compound 0.1 µM, first compound 10 µM
[13] = second compound 0.316 µM, first compound 0.0316 µM
[14] = second compound 0.316 µM, first compound 0.1 µM
[15] = second compound 0.316 µM, first compound 0.316 µM
[16] = second compound 0.316 µM, first compound 1 µM
[17] = second compound 0.316 µM, first compound 3.16 µM
[18] = second compound 0.316 µM, first compound 10 µM
[19] = second compound 1 µM, first compound 0.0316 µM
[20] = second compound 1 µM, first compound 0.1 µM
[21] = second compound 1 µM, first compound 0.316 µM
[22] = second compound 1 µM, first compound 1 µM
[23] = second compound 1 µM, first compound 3.16 µM
[24] = second compound 1 µM, first compound 10 µM
[25] = second compound 3.16 µM, first compound 0.0316 µM
[26] = second compound 3.16 µM, first compound 0.1 µM
[27] = second compound 3.16 µM, first compound 0.316 µM
[28] = second compound 3.16 µM, first compound 1 µM
[29] = second compound 3.16 µM, first compound 3.16 µM
[30] = second compound 3.16 µM, first compound 10 µM
[31] = second compound 10 µM, first compound 0.0316 µM
[32] = second compound 10 µM, first compound 0.1 µM
[33] = second compound 10 µM, first compound 0.316 µM
[34] = second compound 10 µM, first compound 1 µM
[35] = second compound 10 µM, first compound 3.16 µM
[36] = second compound 10 µM, first compound 10 µM

## COc1ncnc(C2CC2)c1-c1ncc2cnn(Cc3ccc(-c4nc(C(F)(F)F)cn4C(C)C)cc3)c2n1 + CN(C)c1ccc(Nc2c3ccc(NC(=O)CCN4CCCC4)cc3nc3cc(NC(=O)CCN4CCCC4)ccc23)cc1
Second compound 0.0316 µM
  IC50: > 10000 nM
Second compound 0.1 µM
  IC50: > 10000 nM
Second compound 0.316 µM
  IC50: > 10000 nM
Second compound 1 µM
  IC50: > 10000 nM
Second compound 3.16 µM
  IC50: > 10000 nM
Second compound 10 µM
  IC50: 8650 nM
[1]
  viability, T/C: 101%
[2]
  viability, T/C: 91.8%
[3]
  viability, T/C: 84.1%
[4]
  viability, T/C: 97.1%
[5]
  viability, T/C: 89.8%
[6]
  viability, T/C: 98.6%
[7]
  viability, T/C: 94.8%
[8]
  viability, T/C: 83.2%
[9]
  viability, T/C: 88.7%
[10]
  viability, T/C: 80.2%
[11]
  viability, T/C: 93.4%
[12]
  viability, T/C: 90.5%
[13]
  viability, T/C: 90.5%
[14]
  viability, T/C: 90.5%
[15]
  viability, T/C: 75.7%
[16]
  viability, T/C: 74.1%
[17]
  viability, T/C: 88%
[18]
  viability, T/C: 89.1%
[19]
  viability, T/C: 79%
[20]
  viability, T/C: 88.3%
[21]
  viability, T/C: 83.5%
[22]
  viability, T/C: 67.9%
[23]
  viability, T/C: 64.2%
[24]
  viability, T/C: 75.5%
[25]
  viability, T/C: 82.6%
[26]
  viability, T/C: 77.8%
[27]
  viability, T/C: 65.1%
[28]
  viability, T/C: 74.1%
[29]
  viability, T/C: 72.1%
[30]
  viability, T/C: 66.9%
[31]
  viability, T/C: 84.1%
[32]
  viability, T/C: 69%
[33]
  viability, T/C: 70.5%
[34]
  viability, T/C: 71.8%
[35]
  viability, T/C: 71.8%
[36]
  viability, T/C: 46.9%

## CC1COCCN1c1cc(-c2ccnn2C)c2ccnc(-c3ccn[nH]3)c2n1 (stereo not drawn) + Cc1[nH]c2ccc(F)cc2c1-c1nc2c3cccnc3c3ncccc3c2[nH]1
Second compound 0.0316 µM
  IC50: 89.1 nM
Second compound 0.1 µM
  IC50: 95.5 nM
Second compound 0.316 µM
  IC50: 107 nM
Second compound 1 µM
  IC50: 120 nM
Second compound 3.16 µM
  IC50: 97.2 nM
Second compound 10 µM
  IC50: 93.9 nM
[1]
  viability, T/C: 90.7%
[2]
  viability, T/C: 45.6%
[3]
  viability, T/C: 25.8%
[4]
  viability, T/C: 26.4%
[5]
  viability, T/C: 27%
[6]
  viability, T/C: 26.3%
[7]
  viability, T/C: 82.7%
[8]
  viability, T/C: 48.6%
[9]
  viability, T/C: 25.1%
[10]
  viability, T/C: 21.8%
[11]
  viability, T/C: 28.6%
[12]
  viability, T/C: 25.7%
[13]
  viability, T/C: 95.1%
[14]
  viability, T/C: 51.4%
[15]
  viability, T/C: 23.3%
[16]
  viability, T/C: 23.9%
[17]
  viability, T/C: 25.8%
[18]
  viability, T/C: 25.3%
[19]
  viability, T/C: 92.4%
[20]
  viability, T/C: 54.5%
[21]
  viability, T/C: 26.4%
[22]
  viability, T/C: 26.4%
[23]
  viability, T/C: 24.8%
[24]
  viability, T/C: 26.6%
[25]
  viability, T/C: 98.2%
[26]
  viability, T/C: 48.8%
[27]
  viability, T/C: 25.4%
[28]
  viability, T/C: 26.2%
[29]
  viability, T/C: 25.7%
[30]
  viability, T/C: 22.5%
[31]
  viability, T/C: 92.7%
[32]
  viability, T/C: 47.6%
[33]
  viability, T/C: 24.2%
[34]
  viability, T/C: 27.4%
[35]
  viability, T/C: 23%
[36]
  viability, T/C: 24.1%

## COc1ccc([C@@H](O)c2cc(-c3ncnc4cc(N5CCOCC5)ccc34)c(F)cc2Cl)nn1 + Cc1[nH]c2ccc(F)cc2c1-c1nc2c3cccnc3c3ncccc3c2[nH]1
Second compound 0.0316 µM
  IC50: 761 nM
Second compound 0.1 µM
  IC50: 1070 nM
Second compound 0.316 µM
  IC50: 1130 nM
Second compound 1 µM
  IC50: 1160 nM
Second compound 3.16 µM
  IC50: 1050 nM
Second compound 10 µM
  IC50: 874 nM
[1]
  viability, T/C: 95.7%
[2]
  viability, T/C: 90.1%
[3]
  viability, T/C: 65.6%
[4]
  viability, T/C: 45.8%
[5]
  viability, T/C: 29.9%
[6]
  viability, T/C: 23.9%
[7]
  viability, T/C: 92.9%
[8]
  viability, T/C: 92.9%
[9]
  viability, T/C: 79.3%
[10]
  viability, T/C: 52.3%
[11]
  viability, T/C: 29.4%
[12]
  viability, T/C: 27.6%
[13]
  viability, T/C: 104%
[14]
  viability, T/C: 87.3%
[15]
  viability, T/C: 83%
[16]
  viability, T/C: 47.1%
[17]
  viability, T/C: 39.4%
[18]
  viability, T/C: 28.7%
[19]
  viability, T/C: 102%
[20]
  viability, T/C: 102%
[21]
  viability, T/C: 82.9%
[22]
  viability, T/C: 52.4%
[23]
  viability, T/C: 32.5%
[24]
  viability, T/C: 23.9%
[25]
  viability, T/C: 95.2%
[26]
  viability, T/C: 78.9%
[27]
  viability, T/C: 76.7%
[28]
  viability, T/C: 49.8%
[29]
  viability, T/C: 31.8%
[30]
  viability, T/C: 25.9%
[31]
  viability, T/C: 89.8%
[32]
  viability, T/C: 82.6%
[33]
  viability, T/C: 71.7%
[34]
  viability, T/C: 46.3%
[35]
  viability, T/C: 30.9%
[36]
  viability, T/C: 23.3%

## Cn1ncnc1[C@H]1c2n[nH]c(=O)c3cc(F)cc(c23)N[C@@H]1c1ccc(F)cc1 + Cc1[nH]c2ccc(F)cc2c1-c1nc2c3cccnc3c3ncccc3c2[nH]1
Second compound 0.0316 µM
  IC50: > 316 nM
Second compound 0.1 µM
  IC50: > 316 nM
Second compound 0.316 µM
  IC50: 305 nM
Second compound 1 µM
  IC50: > 316 nM
Second compound 3.16 µM
  IC50: > 316 nM
Second compound 10 µM
  IC50: > 316 nM
Second compound 0.0316 µM, first compound 0.000999 µM
  viability, T/C: 105%
Second compound 0.0316 µM, first compound 0.00316 µM
  viability, T/C: 93.4%
Second compound 0.0316 µM, first compound 0.00999 µM
  viability, T/C: 103%
[1]
  viability, T/C: 88%
Second compound 0.0316 µM, first compound 0.0999 µM
  viability, T/C: 69.8%
[3]
  viability, T/C: 57.3%
Second compound 0.1 µM, first compound 0.000999 µM
  viability, T/C: 90.4%
Second compound 0.1 µM, first compound 0.00316 µM
  viability, T/C: 96.2%
Second compound 0.1 µM, first compound 0.00999 µM
  viability, T/C: 87.6%
[7]
  viability, T/C: 86.9%
Second compound 0.1 µM, first compound 0.0999 µM
  viability, T/C: 73.2%
[9]
  viability, T/C: 56.7%
Second compound 0.316 µM, first compound 0.000999 µM
  viability, T/C: 109%
Second compound 0.316 µM, first compound 0.00316 µM
  viability, T/C: 90.3%
Second compound 0.316 µM, first compound 0.00999 µM
  viability, T/C: 95.2%
[13]
  viability, T/C: 89.8%
Second compound 0.316 µM, first compound 0.0999 µM
  viability, T/C: 65.4%
[15]
  viability, T/C: 50%
Second compound 1 µM, first compound 0.000999 µM
  viability, T/C: 94.6%
Second compound 1 µM, first compound 0.00316 µM
  viability, T/C: 94.5%
Second compound 1 µM, first compound 0.00999 µM
  viability, T/C: 96.3%
[19]
  viability, T/C: 88%
Second compound 1 µM, first compound 0.0999 µM
  viability, T/C: 66%
[21]
  viability, T/C: 51%
Second compound 3.16 µM, first compound 0.000999 µM
  viability, T/C: 88.6%
Second compound 3.16 µM, first compound 0.00316 µM
  viability, T/C: 90.4%
Second compound 3.16 µM, first compound 0.00999 µM
  viability, T/C: 96.2%
[25]
  viability, T/C: 78%
Second compound 3.16 µM, first compound 0.0999 µM
  viability, T/C: 67.7%
[27]
  viability, T/C: 50%
Second compound 10 µM, first compound 0.000999 µM
  viability, T/C: 85.3%
Second compound 10 µM, first compound 0.00316 µM
  viability, T/C: 77.7%
Second compound 10 µM, first compound 0.00999 µM
  viability, T/C: 88.8%
[31]
  viability, T/C: 81.8%
Second compound 10 µM, first compound 0.0999 µM
  viability, T/C: 65.4%
[33]
  viability, T/C: 50.9%
